Assay results reported in US12403172B2, “Composition for preventing, alleviating or treating metabolic syndrome accompanied by obesity and/or diabetes, containing, as active ingredient, complex (IB complex) of Indian gooseberry extract and sprout barley extract” (HLSCIENCE CO., LTD, priority 2019, dated 2025).
Marks after values point to notes of the source that are not given here.

System: obesity-induced mice from high fat diet
Experiment: Body weight change of obesity-induced mice
Assay type: in vivo, C57BL/6J mice
Conditions: 60% high fat diet + Metformin 250 mg/kg b.w.
Description: The effect on the body weight change of obesity-induced mice from high fat diet of the complex of the Indian gooseberry extract and barley sprout extract of the present invention was confirmed. As an experimental animal, 4-week male C57BL/6J mice around 20 g were supplied from Saeron Bio Inc. (Uiwang-si, Korea). They were used for the experiment, after passing through the adaptation period for 1 week under the condition that the light and dark was 12 hours (light/dark cycle) and the temperature was 23±2° C. and the relative humidity was 50±5%. During the adaptation period, AIN-93G diet and drinking water were allowed to be consumed freely, and the body weight was measured to separate 8 mice per each group by the random method. At the end of the adaptation period, the sample intake was progressed as free diet intake for 15 weeks, and the dietary intake and body weight were measured every week, and after the end of the experiment, the weight gain was divided by the dietary intake (total food consumption)) for the same period to calculate the food efficiency ratio (FER). The classification of the experimental group and the composition of the experimental diet were shown in Table 5, and the equation of the diet efficiency was shown in the following equation 3. FER=weight gain (g)/total food consumption (g)×100 Equation 3

CN(C)C(=N)N=C(N)N [Met, Metformin] was tested, and the “Initial body weight” value was 19.26 ± 0.66 g, the “Final body weight (g)” value (15 weeks) was 39.46 ± 2.16^d g and the “Food intake (g/day/mouse)” value (15 weeks) was 2.66 ± 0.18^b g/day/mouse. For the same compound, the “Weight gain (g)” value (15 weeks) was 20.20 ± 1.89^c g and the “FER (food efficiency ratio)” value (weight gain/total food consumption x100) was 7.25 ± 0.68^c.
